In patent US20250034216A1, “STEREOSELECTIVE COVALENT LIGANDS FOR ONCOGENIC AND IMMUNOLOGICAL PROTEINS” (The Scripps Research Institute, priority 2021, published 2025):

How the values were obtained:
Assay in all cases: IA-DTB cysteine engagement
Type in all cases: binding
[1] = biological target: T1, ITPR2_C292 (Homo sapiens, UniProt Q14571); conditions: 22Rv1 cells, 20 μM probe, 1 h, relative to DMSO
T1 construct: endogenous in cells; host or cells: 22Rv1
In short: (§1)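 In-situ probe treatment of cells; lysate 2 mg/mL, IA-DTB 1 h RT; MeOH/CHCl3 precipitation, DTT/iodoacetamide, trypsin; streptavidin enrichment; TMT labeling, high-pH fractionation. Ratio = TMT reporter intensity / mean DMSO channels, median-normalized.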

[2] = biological target: T2, REEP5_C18 (Homo sapiens, UniProt Q00765); conditions: 22Rv1 cells, relative to DMSO; for % engagement REEP5_C18: 20 μM probe, 1 h; for % engagement REEP5_18: 5 μM probe, 1 h (FIG. 5B)
T2 construct: endogenous in cells; host or cells: 22Rv1
T2 sequence (Q00765 whole entry): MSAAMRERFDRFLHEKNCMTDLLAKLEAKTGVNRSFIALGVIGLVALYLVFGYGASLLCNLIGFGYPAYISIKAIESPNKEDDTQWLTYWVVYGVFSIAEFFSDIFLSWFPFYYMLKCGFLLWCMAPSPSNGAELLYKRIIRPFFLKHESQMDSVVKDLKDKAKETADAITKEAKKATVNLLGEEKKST
In short: as §1

[3] = biological target: T3, PNPLA8_C100 (Homo sapiens, UniProt Q9NP80); conditions: 22Rv1 cells, 20 μM probe, 1 h, relative to DMSO
T3 construct: endogenous in cells; host or cells: 22Rv1
T3 sequence (Q9NP80 1-782): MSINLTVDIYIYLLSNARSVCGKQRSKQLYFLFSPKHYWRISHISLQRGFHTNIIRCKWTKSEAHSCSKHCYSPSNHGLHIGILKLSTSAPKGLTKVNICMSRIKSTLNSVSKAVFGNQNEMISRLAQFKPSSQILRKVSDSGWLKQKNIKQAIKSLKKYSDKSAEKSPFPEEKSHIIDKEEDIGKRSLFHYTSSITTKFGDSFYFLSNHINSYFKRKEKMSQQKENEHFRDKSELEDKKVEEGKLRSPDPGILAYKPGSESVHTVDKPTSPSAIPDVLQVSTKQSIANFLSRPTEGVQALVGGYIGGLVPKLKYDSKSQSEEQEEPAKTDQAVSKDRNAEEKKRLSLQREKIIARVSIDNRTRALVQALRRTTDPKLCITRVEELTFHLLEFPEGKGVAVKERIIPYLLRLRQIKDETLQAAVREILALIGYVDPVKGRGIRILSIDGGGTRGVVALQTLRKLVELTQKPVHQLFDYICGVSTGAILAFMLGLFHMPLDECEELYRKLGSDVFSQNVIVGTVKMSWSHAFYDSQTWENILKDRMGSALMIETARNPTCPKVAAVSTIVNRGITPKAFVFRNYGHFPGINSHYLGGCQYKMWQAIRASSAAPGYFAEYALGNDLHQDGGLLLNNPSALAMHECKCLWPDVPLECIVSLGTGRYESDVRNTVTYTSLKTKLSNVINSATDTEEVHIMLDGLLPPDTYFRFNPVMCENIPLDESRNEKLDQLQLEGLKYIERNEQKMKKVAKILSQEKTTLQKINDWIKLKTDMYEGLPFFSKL
In short: as §1

[4] = biological target: T4, GRIN2C_C1105 (Homo sapiens, UniProt Q14957); conditions: 22Rv1 cells, 20 μM probe, 1 h, relative to DMSO
T4 construct: endogenous in cells; host or cells: 22Rv1
T4 sequence (Q14957 20-1233, other chains not shown): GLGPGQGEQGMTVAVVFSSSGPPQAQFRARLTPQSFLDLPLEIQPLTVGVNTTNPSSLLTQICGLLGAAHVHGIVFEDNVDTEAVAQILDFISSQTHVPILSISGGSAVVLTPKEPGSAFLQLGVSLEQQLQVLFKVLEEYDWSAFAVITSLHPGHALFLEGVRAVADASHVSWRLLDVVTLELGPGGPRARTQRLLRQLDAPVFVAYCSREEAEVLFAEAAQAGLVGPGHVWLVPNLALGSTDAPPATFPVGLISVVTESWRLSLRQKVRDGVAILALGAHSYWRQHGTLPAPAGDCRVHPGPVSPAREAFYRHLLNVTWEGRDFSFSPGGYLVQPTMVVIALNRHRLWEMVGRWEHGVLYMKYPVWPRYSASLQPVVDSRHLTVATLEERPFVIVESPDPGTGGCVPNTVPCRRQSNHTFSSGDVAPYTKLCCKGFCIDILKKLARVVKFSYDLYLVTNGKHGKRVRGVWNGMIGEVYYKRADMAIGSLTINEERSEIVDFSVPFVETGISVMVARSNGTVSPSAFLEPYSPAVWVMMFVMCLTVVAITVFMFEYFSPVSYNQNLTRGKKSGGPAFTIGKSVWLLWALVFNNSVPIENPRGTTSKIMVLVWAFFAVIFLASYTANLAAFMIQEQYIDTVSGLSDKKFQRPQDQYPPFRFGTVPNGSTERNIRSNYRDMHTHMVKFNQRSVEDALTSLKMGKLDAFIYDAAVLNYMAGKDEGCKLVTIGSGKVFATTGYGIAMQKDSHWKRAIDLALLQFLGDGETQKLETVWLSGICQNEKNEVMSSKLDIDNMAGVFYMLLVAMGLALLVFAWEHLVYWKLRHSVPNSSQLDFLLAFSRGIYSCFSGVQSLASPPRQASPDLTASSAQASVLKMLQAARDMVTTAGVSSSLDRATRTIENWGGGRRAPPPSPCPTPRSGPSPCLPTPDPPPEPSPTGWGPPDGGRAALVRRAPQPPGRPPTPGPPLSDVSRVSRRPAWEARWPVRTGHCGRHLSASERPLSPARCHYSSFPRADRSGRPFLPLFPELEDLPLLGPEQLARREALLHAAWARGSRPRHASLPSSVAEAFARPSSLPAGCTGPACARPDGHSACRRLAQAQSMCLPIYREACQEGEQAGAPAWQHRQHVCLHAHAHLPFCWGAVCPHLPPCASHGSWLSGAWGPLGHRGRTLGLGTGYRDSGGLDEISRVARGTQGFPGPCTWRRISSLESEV
In short: as §1

[5] = biological target: T5, PRXL2A_C85 (Homo sapiens, UniProt Q9BRX8); conditions: 22Rv1 cells, relative to DMSO; for % engagement PRXL2A_C85: 20 μM probe, 1 h; for % engagement PRXL2A_85: 5 μM probe, 1 h (FIG. 5B)
T5 construct: endogenous in cells; host or cells: 22Rv1
T5 sequence (Q9BRX8 1-229): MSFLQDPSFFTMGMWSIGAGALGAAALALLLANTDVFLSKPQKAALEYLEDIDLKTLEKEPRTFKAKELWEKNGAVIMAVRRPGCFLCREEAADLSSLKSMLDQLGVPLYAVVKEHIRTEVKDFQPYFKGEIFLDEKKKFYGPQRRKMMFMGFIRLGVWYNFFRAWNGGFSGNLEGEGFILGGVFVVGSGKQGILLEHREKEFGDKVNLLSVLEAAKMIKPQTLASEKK
In short: as §1

[6] = biological target: T6, IFT43_C58 (Homo sapiens, UniProt Q96FT9); conditions: 22Rv1 cells, 20 μM probe, 1 h, relative to DMSO
T6 construct: endogenous in cells; host or cells: 22Rv1
T6 sequence (Q96FT9 1-208): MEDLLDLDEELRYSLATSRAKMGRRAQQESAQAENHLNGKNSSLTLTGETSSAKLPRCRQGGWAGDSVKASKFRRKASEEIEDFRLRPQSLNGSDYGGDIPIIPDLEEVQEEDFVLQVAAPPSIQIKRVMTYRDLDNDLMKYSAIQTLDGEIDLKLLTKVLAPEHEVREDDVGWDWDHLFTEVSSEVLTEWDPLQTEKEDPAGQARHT
In short: as §1

T1 sequence (Q14571 whole entry): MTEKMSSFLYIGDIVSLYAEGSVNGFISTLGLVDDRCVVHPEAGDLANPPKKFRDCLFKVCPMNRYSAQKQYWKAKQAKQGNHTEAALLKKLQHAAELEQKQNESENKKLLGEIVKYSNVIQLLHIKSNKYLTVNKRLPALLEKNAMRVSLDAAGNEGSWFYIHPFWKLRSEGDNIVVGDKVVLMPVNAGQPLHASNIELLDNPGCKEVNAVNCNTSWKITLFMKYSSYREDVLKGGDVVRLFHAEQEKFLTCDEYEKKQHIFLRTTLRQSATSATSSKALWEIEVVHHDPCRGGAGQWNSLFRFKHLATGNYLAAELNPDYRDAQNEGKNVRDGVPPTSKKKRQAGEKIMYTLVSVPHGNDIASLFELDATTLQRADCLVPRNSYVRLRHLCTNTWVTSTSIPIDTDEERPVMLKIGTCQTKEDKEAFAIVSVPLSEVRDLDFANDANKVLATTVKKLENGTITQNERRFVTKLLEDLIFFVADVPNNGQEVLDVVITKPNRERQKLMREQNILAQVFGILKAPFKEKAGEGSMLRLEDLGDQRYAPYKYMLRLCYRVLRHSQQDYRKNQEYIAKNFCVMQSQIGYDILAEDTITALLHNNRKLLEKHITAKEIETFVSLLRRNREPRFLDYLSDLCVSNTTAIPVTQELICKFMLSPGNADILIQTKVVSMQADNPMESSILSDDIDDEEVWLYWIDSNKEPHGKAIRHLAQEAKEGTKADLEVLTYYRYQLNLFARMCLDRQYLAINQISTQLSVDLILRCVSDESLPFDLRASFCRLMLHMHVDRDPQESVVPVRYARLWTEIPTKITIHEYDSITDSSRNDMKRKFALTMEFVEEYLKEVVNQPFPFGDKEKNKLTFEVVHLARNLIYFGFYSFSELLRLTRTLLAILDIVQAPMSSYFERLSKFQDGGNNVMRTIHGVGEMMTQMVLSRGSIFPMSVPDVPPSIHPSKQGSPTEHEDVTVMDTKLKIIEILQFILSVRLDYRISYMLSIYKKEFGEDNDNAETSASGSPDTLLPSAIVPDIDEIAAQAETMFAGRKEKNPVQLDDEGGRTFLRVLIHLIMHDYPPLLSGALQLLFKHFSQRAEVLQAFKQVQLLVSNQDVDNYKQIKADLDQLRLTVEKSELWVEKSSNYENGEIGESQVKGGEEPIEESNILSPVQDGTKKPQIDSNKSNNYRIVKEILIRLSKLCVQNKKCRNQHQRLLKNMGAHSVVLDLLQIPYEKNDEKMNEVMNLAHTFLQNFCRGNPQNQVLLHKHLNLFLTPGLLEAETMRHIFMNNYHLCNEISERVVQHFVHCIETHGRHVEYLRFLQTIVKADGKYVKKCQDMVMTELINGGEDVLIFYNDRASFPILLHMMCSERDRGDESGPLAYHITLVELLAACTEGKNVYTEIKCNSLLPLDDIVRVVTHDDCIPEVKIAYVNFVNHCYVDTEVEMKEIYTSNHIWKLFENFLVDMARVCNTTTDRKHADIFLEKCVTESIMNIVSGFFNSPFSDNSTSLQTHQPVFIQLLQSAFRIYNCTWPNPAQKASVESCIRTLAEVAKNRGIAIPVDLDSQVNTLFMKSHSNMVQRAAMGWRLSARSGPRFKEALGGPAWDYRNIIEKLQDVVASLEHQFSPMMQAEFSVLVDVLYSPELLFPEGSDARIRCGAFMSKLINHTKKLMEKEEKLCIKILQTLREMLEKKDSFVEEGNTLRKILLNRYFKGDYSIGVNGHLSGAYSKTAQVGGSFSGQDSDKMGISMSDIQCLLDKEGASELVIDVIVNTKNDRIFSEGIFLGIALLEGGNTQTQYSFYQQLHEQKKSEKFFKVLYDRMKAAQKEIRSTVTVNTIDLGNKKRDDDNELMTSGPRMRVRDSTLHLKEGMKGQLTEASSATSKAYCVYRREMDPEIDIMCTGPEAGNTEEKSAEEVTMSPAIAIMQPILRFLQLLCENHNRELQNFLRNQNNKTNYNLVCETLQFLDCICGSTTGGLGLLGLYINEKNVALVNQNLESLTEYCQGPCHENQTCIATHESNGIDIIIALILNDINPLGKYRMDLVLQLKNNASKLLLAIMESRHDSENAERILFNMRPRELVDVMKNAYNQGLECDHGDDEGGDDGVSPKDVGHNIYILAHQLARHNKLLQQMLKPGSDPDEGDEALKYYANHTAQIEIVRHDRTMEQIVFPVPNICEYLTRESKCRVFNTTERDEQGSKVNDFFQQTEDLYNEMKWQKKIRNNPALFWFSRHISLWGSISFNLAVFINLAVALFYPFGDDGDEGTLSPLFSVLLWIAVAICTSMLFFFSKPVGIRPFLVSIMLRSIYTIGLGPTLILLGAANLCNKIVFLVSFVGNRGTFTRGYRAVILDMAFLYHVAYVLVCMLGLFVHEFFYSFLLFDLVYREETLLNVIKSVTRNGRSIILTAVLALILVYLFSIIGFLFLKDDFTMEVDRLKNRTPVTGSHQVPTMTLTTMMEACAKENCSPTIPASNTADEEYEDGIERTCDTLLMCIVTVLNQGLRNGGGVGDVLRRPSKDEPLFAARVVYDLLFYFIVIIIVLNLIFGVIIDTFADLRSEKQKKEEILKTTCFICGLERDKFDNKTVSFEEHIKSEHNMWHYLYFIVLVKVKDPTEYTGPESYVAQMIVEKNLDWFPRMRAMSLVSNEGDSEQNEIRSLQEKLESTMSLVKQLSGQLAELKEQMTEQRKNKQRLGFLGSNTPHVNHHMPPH

Row | Compound | % engagement ITPR2_C292 [1] | % engagement REEP5_C18 [2] | % engagement PNPLA8_C100 [3] | % engagement GRIN2C_C1105 [4] | % engagement PRXL2A_C85 [5] | % engagement IFT43_C58 [6] | % engagement REEP5_18 [2] | % engagement PRXL2A_85 [5]
1 | C=CC(=O)N1C[C@H](c2ccc(Br)cc2)[C@H]1C(=O)Nc1cccc2cccnc12 [MY-3B, (2S,3S)-1-acryloyl-3-(4-bromophenyl)-N-(quinolin-8-yl)azetidine-2-carboxamide] | 50.5% | 91.75% | 70.5% | 64.5% | 98.5% | 71.5% | – | –
2 | CC#CC(=O)N1C[C@H](c2ccc(Br)cc2)[C@@H]1C(=O)Nc1cccc2cccnc12 [MY-45B, (2R,3S)-3-(4-bromophenyl)-1-(but-2-ynoyl)-N-(quinolin-8-yl)azetidine-2-carboxamide] | – | – | – | – | – | – | 22.75% | 86.23%
3 | C=CC(=O)N1C[C@H](c2ccc(Br)cc2)[C@H]1C(=O)Nc1cccc2cccnc12 [MY-3A, (2S,3S)-1-acryloyl-3-(4-bromophenyl)-N-(quinolin-8-yl)azetidine-2-carboxamide] | 48.5% | 88.25% | 48% | 85% | 97.5% | 17% | – | –

Results, then the molecule that gave them:

Row | % engagement ITPR2_C292 [1] | % engagement REEP5_C18 [2] | % engagement PNPLA8_C100 [3] | % engagement GRIN2C_C1105 [4] | % engagement PRXL2A_C85 [5] | % engagement IFT43_C58 [6] | % engagement REEP5_18 [2] | % engagement PRXL2A_85 [5] | Compound
4 | 70% | 97.5% | 59.5% | 40.5% | 98.75% | −17% | 79.00% | 91.48% | C=CC(=O)N1C[C@H](c2ccc(Br)cc2)[C@@H]1C(=O)Nc1cccc2cccnc12 [MY-1B, (2R,3S)-1-acryloyl-3-(4-bromophenyl)-N-(quinolin-8-yl)azetidine-2-carboxamide]
5 | 24.5% | 91.75% | 67% | 78.5% | 92.5% | 28.5% | – | – | C=CC(=O)N1C[C@@H](c2ccc(Br)cc2)[C@H]1C(=O)Nc1cccc2cccnc12 [MY-1A, (2S,3R)-1-acryloyl-3-(4-bromophenyl)-N-(quinolin-8-yl)azetidine-2-carboxamide]
